Test results taken from patent US7524847B2, “Fused 1,3-dihydro-imidazole ring compounds” (Eisai R&D Management Co., Ltd., priority 2002, dated 2009).
Structures can show the parent of a compound that is named as a salt.

How the values were obtained:
[1] = biological target: T1, DPP-IV obtained from pig kidney (Sus scrofa, UniProt P22411); experiment: Measurement of DPPIV-inhibiting activity (in vitro experiment); assay type: biochemical; conditions: DPP-IV from pig kidney 10 mU/mL, substrate Gly-Pro-p-nitroanilide 0.33 mM, 20 min preincubation, 20 min reaction, absorbance 405 nm
T1 construct: DPP-IV obtained from pig kidney; from tissue; host or cells: pig kidney
Protocol: DPP-IV obtained from pig kidney was dissolved in a reaction buffer (50 mM Tris-HCl pH7.4, 0.1% BSA) at 10 mU/mL, and 110 μL of this was used. 15 μL of the drug obtained from the aforementioned Examples was added, and this was incubated at room temperature for 20 minutes, and then 25 μL of a 2 mM solution of Gly-Pro-p-nitroanilide (final concentration 0.33 mM) was added to start the enzymatic reaction. The reaction time was 20 minutes, and 1 N phosphoric acid solution (25 μL) was added to stop the reaction.

[2] = test system: normal mice (male C57BL/6N); experiment: Effects on glucose tolerance in normal mice (in vivo experiment); conditions: 1 mg/kg oral, 30 min before oral glucose 2 g/kg; blood glucose AUC0-120; 0.5% MC group = 100%, NVP DPP728 (10 mg/kg) group = 0%; lower = better
Protocol: Animals: Male C57BL/6N mice (purchased from Japan Charles River) The test compounds were suspended in a 0.5% methylcellulose (MC) solution at the doses indicated below in Table 2. These test compounds and the NVP DPP728 (U.S. Pat. No. 6,011,155) suspension, or the 0.5% MC solution (the solvent control group), were administered orally at a dose of 10 mL/kg. 30 minutes later, a glucose solution was orally administered at a dose of 10 mL/kg. Glucose was orally administered at a dose of 2 g/kg. The tail vain of unanesthetized mice was cut with a razor blade to cause a small amount of bleeding immediately before administering the test substances or NVP DPP728, and immediately before, as well as 30, 60, and 120 minutes after, administration of the glucose solution. 10 μL of blood was collected, and this was mixed immediately with 0.6 M perchloric acid (140 μL). Glucose present in the supernatant obtained by centrifugation (1500 g, 10 minutes, 4° C., refrigerated centrifuge GS-6KR, Beckman) was measured using Glucose CII Test Wako (Wako Pure Chemicals). Results: In each of the groups to which 0.5% MC solution, NVP DPP728, and the test compounds were administered, the area under the curve of blood glucose vs. time was calculated over 0 to 120 minutes from the time of glucose administration (AUC0-120). Defining the AUC0-120 for the 0.5% MC solution-administered group as 100%, and the AUC0-120 for the NVP DPP728 (10 mg/kg)-administered group as 0%, the degree of improvement in glucose tolerance due to the test compound was calculated by the following equation: Degree of improvement in glucose tolerance (%)=(AUC0-120 of the test compound−AUC0-120 of the NVP DPP728 (10 mg/kg)-administered group)/(AUC0-120 of the 0.5% MC solution-administered group−AUC0-120 of the NVP DPP728 (10 mg/kg)-administered group)×100 The lower the % value, the better the degree of improvement in glucose tolerance.

T1 sequence (P22411 whole entry): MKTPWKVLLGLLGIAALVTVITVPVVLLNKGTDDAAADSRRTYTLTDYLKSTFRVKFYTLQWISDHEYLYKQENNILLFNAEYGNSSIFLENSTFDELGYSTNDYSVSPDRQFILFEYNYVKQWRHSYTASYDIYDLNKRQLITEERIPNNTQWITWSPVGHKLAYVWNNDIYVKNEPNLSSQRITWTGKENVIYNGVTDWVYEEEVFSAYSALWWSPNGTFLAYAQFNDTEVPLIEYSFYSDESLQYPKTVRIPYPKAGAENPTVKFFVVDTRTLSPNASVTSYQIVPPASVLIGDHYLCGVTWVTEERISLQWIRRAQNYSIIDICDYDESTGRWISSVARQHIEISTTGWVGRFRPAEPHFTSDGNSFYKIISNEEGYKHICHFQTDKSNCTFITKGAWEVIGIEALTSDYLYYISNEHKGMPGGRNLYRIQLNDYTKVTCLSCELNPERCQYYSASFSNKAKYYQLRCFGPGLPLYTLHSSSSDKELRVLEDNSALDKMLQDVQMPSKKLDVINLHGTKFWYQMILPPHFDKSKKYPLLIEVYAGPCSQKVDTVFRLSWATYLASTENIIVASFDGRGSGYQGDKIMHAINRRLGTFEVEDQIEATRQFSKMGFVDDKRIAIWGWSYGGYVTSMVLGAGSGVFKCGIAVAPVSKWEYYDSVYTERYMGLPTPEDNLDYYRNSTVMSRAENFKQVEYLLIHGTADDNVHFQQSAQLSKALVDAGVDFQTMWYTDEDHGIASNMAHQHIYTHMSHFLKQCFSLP

IC50 [1] | Compound | Degree of improvement in glucose tolerance (%) [2]
0.24 µM | CC#CCn1c(=O)n(C)c2nc(OC)nc(N3CCNCC3)c21.O=C(O)C(F)(F)F [Example 1, 7-(2-Butynyl)-2-methoxy-9-methyl-6-(piperazin-1-yl)-7,9-dihydropurin-8-one trifluoroacetic acid salt] | 19.8%
0.199 µM | CC#CCn1c(=O)n(C)c2nc(OC(C)C)nc(N3CCNCC3)c21.O=C(O)C(F)(F)F [Example 7, 7-(2-Butynyl)-2-isopropoxy-9-methyl-6-(piperazin-1-yl)-7,9-dihydropurin-8-one trifluoroacetic acid salt] | 19.8%
0.04 µM | CC#CCn1c(=O)n(Cc2ccc(C#N)cc2)c2nc(OC)nc(N3CCNCC3)c21 [Example 49, 4-[7-(2-Butynyl)-2-methoxy-8-oxo-6-(piperazin-1-yl)-7,8-dihydropurin-9-ylmethyl]benzonitrile trifluoroacetic acid salt] | –
0.00365 µM | CC#CCn1c(=O)n(Cc2ccccc2C#N)c2nc(OC)nc(N3CCNCC3)c21 [Example 50, 2-[7-(2-Butynyl)-2-methoxy-8-oxo-6-(piperazin-1-yl)-7,8-dihydropurin-9-ylmethyl]benzonitrile trifluoroacetic acid salt] | –
1.37 µM | CC#CCn1c(=O)[nH]c2nc(OC)nc(N3CCNCC3)c21 [Example 53, 7-(2-Butynyl)-2-methoxy-6-(piperazin-1-yl)-7,9-dihydropurin-8-one trifluoroacetic acid salt] | –
0.0372 µM | CC#CCn1c(=O)n(-c2cccnc2)c2nc(OC)nc(N3CCNCC3)c21 [Example 55, 7-(2-Butynyl)-2-methoxy-6-(piperazin-1-yl)-9-(pyridin-3-yl)-7,9-dihydropurin-8-one trifluoroacetic acid salt] | –
0.0775 µM | CC#CCn1c(=O)n(-c2ccsc2)c2nc(OC)nc(N3CCNCC3)c21 [Example 57, 7-(2-Butynyl)-9-(thiophen-3-yl)-2-methoxy-6-(piperazin-1-yl)-7,9-dihydropurin-8-one trifluoroacetic acid salt] | –
0.0156 µM | C=Cc1ccc(-n2c(=O)n(CC#CC)c3c(N4CCNCC4)nc(OC)nc32)cc1 [Example 58, 7-(2-Butynyl)-2-methoxy-6-(piperazin-1-yl)-9-(4-vinyl-phenyl)-7,9-dihydropurin-8-one trifluoroacetic acid salt] | –
0.119 µM | C=CCn1c(=O)n(CC#CC)c2c(N3CCNCC3)nc(OCC)nc21 [Example 59, 9-Allyl-7-(2-butynyl)-2-ethoxy-6-(piperazin-1-yl)-7,9-dihydropurin-8-one trifluoroacetic acid salt] | –
0.119 µM | C=CCn1c(=O)n(CC#CC)c2c(N3CCNCC3)nc(Oc3ccccc3C(N)=O)nc21 [Example 60, 2-[9-Allyl-7-(2-butynyl)-8-oxo-6-(piperazin-1-yl)-8,9-dihydro-7H-purin-2-yloxy]benzamide trifluoroacetic acid salt] | –
0.139 µM | CC#CCn1c(=O)n(-c2ccccc2)c2ncnc(N3CCNCC3)c21 [Example 62, 7-(2-Butynyl)-9-phenyl-6-(piperazin-1-yl)-7,9-dihydropurin-8-one trifluoroacetic acid salt] | –
0.146 µM | CC#CCn1c(=O)n(-c2ccoc2)c2ncnc(N3CCNCC3)c21 [Example 63, 7-(2-Butynyl)-9-(furan-3-yl)-6-(piperazin-1-yl)-7,9-dihydropurin-8-one trifluoroacetic acid salt] | –
0.0593 µM | CC#CCn1c(=O)n(-c2ccc(OC)nc2)c2ncnc(N3CCNCC3)c21 [Example 66, 7-(2-Butynyl)-9-(6-methoxy-pyridin-3-yl)-6-(piperazin-1-yl)-7,9-dihydropurin-8-one trifluoroacetic acid salt] | –
0.0498 µM | CC#CCn1c(=O)n(-c2ccc(=O)[nH]c2)c2ncnc(N3CCNCC3)c21 [Example 67, 7-(2-Butynyl)-9-(6-oxo-16-dihydro-pyridin-3-yl)-6-(piperazin-1-yl)-7,9-dihydropurin-8-one trifluoroacetic acid salt] | –
0.187 µM | CC#CCn1c(=O)n(-c2ccc(=O)n(C)c2)c2ncnc(N3CCNCC3)c21 [Example 68, 7-(2-Butynyl)-9-(1-methyl-6-oxo-1,6-dihydro-pyridin-3-yl)-6-(piperazin-1-yl)-7,9-dihydropurin-8-one trifluoroacetic acid salt] | –
0.0948 µM | C#CCn1c(=O)n(CC#CC)c2c(N3CCNCC3)ncnc21 [Example 70, 7-(2-Butynyl)-6-(piperazin-1-yl)-9-(2-propynyl)-7,9-dihydropurin-8-one trifluoroacetic acid salt] | –
0.26 µM | CC#CCn1c(=O)n(CC(N)=O)c2ncnc(N3CCNCC3)c21 [Example 71, 2-[7-(2-Butynyl)-8-oxo-6-(piperazin-1-yl)-7,8-dihydropurin-9-yl]acetamide trifluoroacetic acid salt] | –
0.141 µM | CC#CCn1c(=O)n(CC2CC2)c2ncnc(N3CCNCC3)c21 [Example 72, 7-(2-Butynyl)-9-cyclopropylmethyl-6-(piperazin-1-yl)-7,9-dihydropurin-8-one trifluoroacetic acid salt] | –
0.0484 µM | CC#CCn1c(=O)n(Cc2ccc(C#N)cc2)c2ncnc(N3CCNCC3)c21 [Example 73, 4-[7-(2-Butynyl)-8-oxo-6-(piperazin-1-yl)-7,8-dihydropurin-9-ylmethyl]benzonitrile trifluoroacetic acid salt] | –
0.014 µM | CC#CCn1c(=O)n(CCc2ccccc2)c2ncnc(N3CCNCC3)c21 [Example 74, 7-(2-Butynyl)-9-phenethyl-6-(piperazin-1-yl)-7,9-dihydropurin-8-one trifluoroacetic acid salt] | –
0.921 µM | CC#CCn1c(=O)[nH]c2ncnc(N3CCNCC3)c21 [Example 75, 7-(2-Butynyl)-6-(piperazin-1-yl)-7,9-dihydropurin-8-one trifluoroacetic acid salt] | –
1.06 µM | CC#CCn1c(=O)n(C)c2ncnc(N3CCNCC3)c21 [Example 76, 7-(2-Butynyl)-9-methyl-6-(piperazin-1-yl)-7,9-dihydropurin-8-one trifluoroacetic acid] | –
8.13 µM | CC(C)=CCn1c(=O)n(C)c2ncnc(N3CCNCC3)c21 [Example 77, 9-Methyl-7-(3-methyl-2-butenyl)-6-(piperazin-1-yl)-7,9-dihydropurin-8-one trifluoroacetic acid salt] | –
3.8 µM | Cn1c(=O)n(Cc2ccccc2)c2c(N3CCNCC3)ncnc21 [Example 78, 7-Benzyl-9-methyl-6-(piperazin-1-yl)-7,9-dihydropurin-8-one trifluoroacetic acid salt] | –
0.0042 µM | CC#CCn1c(=O)n(Cc2ccccc2C#N)c2ncnc(N3CCNCC3)c21 [Example 79, 2-[7-(2-Butynyl)-8-oxo-6-piperazin-1-yl-7,8-dihydropurin-9-ylmethyl]benzonitrile trifluoroacetic acid salt] | –
3.01 µM | N#Cc1ccccc1Cn1c(=O)n(Cc2ccccc2)c2c(N3CCNCC3)nccc21 [Example 80, 2-(3-Benzyl-2-oxo-4-piperazin-1-yl-2,3-dihydroimidazo[4.5-c]pyridin-1-ylmethyl)benzonitrile] | –
0.409 µM | N#Cc1ccccc1Cn1c(=O)n(Cc2ccccc2)c2c(N3CCNCC3)ncc(Oc3ccccc3C(N)=O)c21 [Example 81, 2-[3-Benzyl-1-(2-cyanobenzyl)-2-oxo-4-piperazin-1-yl-2,3-dihydro-1H-imidazo[4.5-c]pyridin-7-yloxy]-benzamide trifluoroacetic acid salt] | –
5.23 µM | CC#CCn1c(=O)n(C)c2ccnc(N3CCNCC3)c21 [Example 82, 3-(2-Butynyl)-1-methyl-4-piperazin-1-yl-1,3-dihydroimidazo[4.5-c]pyridin-2-one] | –
1.13 µM | CC#CCn1c(=O)n(C)c2c(Oc3ccccc3C(N)=O)cnc(N3CCNCC3)c21 [Example 83, 2-[3-(2-Butynyl)-1-methyl-2-oxo-4-piperazin-1-yl-2,3-dihydro-1H-imidazo[4.5-c]pyridin-7-yloxy]-benzamide trifluoroacetic acid salt] | –
13.6 µM | CC#CCn1c(=S)n(C)c2ncnc(N3CCNCC3)c21 [Example 84, 7-(2-Butynyl)-9-methyl-6-(piperazin-1-yl)-7,9-dihydropurin-8-thione trifluoroacetic acid salt] | –
